Where a name gives a salt, the structure may show the parent alone.
Assays:
[1] = test system: Plasmodium vivax liver stage (primary human hepatocyte culture)
Method: (§1)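 Dose-response of P. vivax liver stages in primary human hepatocytes, with 8 points (10 uM-[…], v1) or 12 points in duplicate (50 uM-280 pM, v2). Read-out is high-content imaging of schizont net growth area, hypnozoite quantity and hepatic nuclei. EC50 and CC20 (20% nuclei loss) were fitted in CDD Vault from the highest-quality independent experiment; toxic-dose bell-shaped points were masked. '>' marks the highest concentration with less than 50% activity, and ND means a non-sigmoidal curve.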

[2] = test system: primary human hepatocytes; experiment: CC20 hepatic nuclei (20% reduction); higher = less toxic
Method: as §1

[3] = test system: Plasmodium vivax liver stage (primary human hepatocyte culture); experiment: maximum inhibition of schizont net growth area; higher = more active
Method: as §1

[4] = P. vivax isolate: Pv357, hepatocyte lot: UBV, assay mode: Radical Cure, 8-day (treatment from day 5 post-infection)
[5] = P. vivax isolate: Pv914, hepatocyte lot: BGW, assay mode: Prophylactic, 6-day
[6] = P. vivax isolate: Pv728, hepatocyte lot: BGW, assay mode: Radical Cure, 8-day (treatment from day 5 post-infection)
[7] = P. vivax isolate: Pv360, hepatocyte lot: UBV, assay mode: Radical Cure, 8-day (treatment from day 5 post-infection)
[8] = P. vivax isolate: Pv772, hepatocyte lot: BGW, assay mode: Prophylactic, 6-day
[9] = P. vivax isolate: IVS17-02, hepatocyte lot: PDC, assay mode: Radical Cure, 8-day (treatment from day 5 post-infection)
[10] = P. vivax isolate: Pv360, hepatocyte lot: UBV, assay mode: Prophylactic, 6-day
[11] = P. vivax isolate: Pv458, hepatocyte lot: UBV, assay mode: Radical Cure, 8-day (treatment from day 5 post-infection)
[12] = P. vivax isolate: Pv914, hepatocyte lot: BGW, assay mode: Radical Cure, 8-day (treatment from day 5 post-infection)
[13] = P. vivax isolate: Pv836, hepatocyte lot: BGW, assay mode: Radical Cure, 8-day (treatment from day 5 post-infection)

## CC(C)(N)CNC(=O)CC1CCC2(CC1)OOC1(O2)C2CC3CC(C2)CC1C3 (configuration not stated) [Arterolane, OZ277]
[1]; [4]
  EC50 hypnozoite quantity: > 10000 nM
  EC50 schizont net growth area: > 10000 nM
[2]; [4]
  CC20 hepatic nuclei: > 10000 nM
[3]; [4]
  maximum inhibition: 51.4%

## CC[C@H]1OC(=O)[C@H](C)C(=O)[C@H](C)[C@@H](O[C@@H]2O[C@H](C)C[C@H](N(C)C)[C@H]2O)[C@](C)(OCC=Cc2cnc3ccccc3c2)C[C@@H](C)C(=O)[C@H](C)[C@H]2N=C(O)O[C@@]21C [Cethromycin]
[1]; [5]
  EC50 hypnozoite quantity: > 10000 nM
[2]; [5]
  CC20 hepatic nuclei: > 10000 nM
[3]; [5]
  maximum inhibition: 63.3%

## CCN(CC)CCCC(C)Nc1ccnc2cc(Cl)ccc12 (configuration not stated) [Chloroquine Diphosphate]
[1]; [5]
  EC50 hypnozoite quantity: > 16700 nM
  EC50 schizont net growth area: > 5560 nM
[2]; [5]
  CC20 hepatic nuclei: > 16700 nM
[3]; [5]
  maximum inhibition: 99.1%

## O=C(O)c1cn(C2CC2)c2cc(N3CCNCC3)c(F)cc2c1=O [Ciprofloxacin]
[1]; [6]
  EC50 hypnozoite quantity: > 10000 nM
  EC50 schizont net growth area: > 10000 nM
[2]; [6]
  CC20 hepatic nuclei: > 10000 nM
[3]; [6]
  maximum inhibition: 59.2%

## CCC[C@@H]1C[C@@H](C(=O)N[C@@H]([C@H]2O[C@H](SC)[C@H](O)[C@@H](O)[C@H]2O)[C@H](C)Cl)N(C)C1 [Clindamycin hydrochloride]
[1]; [5]
  EC50 hypnozoite quantity: > 50000 nM
  EC50 schizont net growth area: 5.97 nM
[2]; [5]
  CC20 hepatic nuclei: > 50000 nM
[3]; [5]
  maximum inhibition: 79.5%

## CC1CC(C)C(=O)C(C(O)CC2CC(=O)NC(=O)C2)C1 (configuration not stated) [Cycloheximide]
[1]; [7]
  EC50 hypnozoite quantity: > 10000 nM
  EC50 schizont net growth area: 85.6 nM
[1]; [5]
  EC50 hypnozoite quantity: > 3330 nM
  EC50 schizont net growth area: 1390 nM
[2]; [7]
  CC20 hepatic nuclei: > 10000 nM
[2]; [5]
  CC20 hepatic nuclei: > 10000 nM
[3]; [7]
  maximum inhibition: 96.3%
[3]; [5]
  maximum inhibition: 99.6%

## C[C@H]1c2cccc(O)c2C(=O)C2=C(O)[C@]3(O)C(=O)C(C(N)=O)=C(O)[C@@H](N(C)C)C3[C@@H](O)C21 (some centres not stated) [Doxycycline hydrochloride]
[1]; [5]
  EC50 hypnozoite quantity: > 10000 nM
  EC50 schizont net growth area: > 370 nM
[2]; [5]
  CC20 hepatic nuclei: > 10000 nM
[3]; [5]
  maximum inhibition: 68.3%

## CCC(C)C1OC2(CCC1C)CC1CC(CC=C(C)C(OC3CC(OC)C(OC4CC(OC)C(O)C(C)O4)C(C)O3)C(C)C=CC=C3COC4C(O)C(C)=CC(C(=O)O1)C34O)O2 (configuration not stated) [Ivermectin]
[1]; [8]
  EC50 hypnozoite quantity: > 10000 nM
  EC50 schizont net growth area: > 3330 nM
[2]; [8]
  CC20 hepatic nuclei: > 10000 nM
[3]; [8]
  maximum inhibition: 69.8%

## CC1(C)c2nc(-c3ccc(F)cc3)c(Nc3ccc(F)cc3)n2CCN1C(=O)CN [KAF156]
[1]; [9]
  EC50 hypnozoite quantity: > 1000 nM
  EC50 schizont net growth area: 330 nM
[1]; [10]
  EC50 hypnozoite quantity: 32.9 nM
  EC50 schizont net growth area: 14.1 nM
[2]; [9]
  CC20 hepatic nuclei: > 1000 nM
[2]; [10]
  CC20 hepatic nuclei: > 10000 nM
[3]; [9]
  maximum inhibition: 93.2%
[3]; [10]
  maximum inhibition: 103%

## CCC(C(=O)C(C)C(O)C(C)CCc1ccc(C)c(O)c1C(=O)[O-])C1OC(CC)(C2CCC(O)(CC)C(C)O2)CC1C.[Na+] (configuration not stated) [Lasalocid-A]
[1]; [4]
  EC50 hypnozoite quantity: 1050 nM
  EC50 schizont net growth area: 43.1 nM
[2]; [4]
  CC20 hepatic nuclei: > 10000 nM
[3]; [4]
  maximum inhibition: 100%

## COC1CC(OC2CC(C3OC(C)(O)C(C)CC3C)OC2C2(C)CCC(C3(C)CCC4(CC(O)C(C)C(C(C)C5OC(O)(CC(=O)O)C(C)C(OC)C5OC)O4)O3)O2)OC(C)C1OC.N (configuration not stated) [Maduramicin]
[1]; [11]
  EC50 hypnozoite quantity: 22.5 nM
  EC50 schizont net growth area: 0.705 nM
[2]; [11]
  CC20 hepatic nuclei: 2590 nM
[3]; [11]
  maximum inhibition: 101%

## CCC(C(=O)O)C1OC(C(C)C(O)C(C)C(=O)C(CC)C2OC3(C=CC(O)C4(CCC(C)(C5CCC(O)(CC)C(C)O5)O4)O3)C(C)CC2C)C(C)CC1C (configuration not stated) [Narasin]
[1]; [11]
  EC50 hypnozoite quantity: 64.6 nM
  EC50 schizont net growth area: 7.5 nM
[2]; [11]
  CC20 hepatic nuclei: 8800 nM
[3]; [11]
  maximum inhibition: 101%

## N=C(N)c1ccc(OCCCCCOc2ccc(C(=N)N)cc2)cc1 [Pentamidine isethionate]
[1]; [5]
  EC50 hypnozoite quantity: 5540 nM
  EC50 schizont net growth area: 551 nM
[1]; [12]
  EC50 hypnozoite quantity: > 50000 nM
  EC50 schizont net growth area: 8390 nM
[2]; [5]
  CC20 hepatic nuclei: 5540 nM
[2]; [12]
  CC20 hepatic nuclei: > 5560 nM
[3]; [5]
  maximum inhibition: 99.6%
[3]; [12]
  maximum inhibition: 94.4%

## CCC(C(=O)O)C1CCC(C)C(C(C)C(O)C(C)C(=O)C(CC)C2OC3(C=CC(O)C4(CCC(C)(C5CCC(O)(CC)C(C)O5)O4)O3)C(C)CC2C)O1 (configuration not stated) [Salinomycin]
[1]; [13]
  EC50 hypnozoite quantity: 112 nM
  EC50 schizont net growth area: 40.2 nM
[2]; [13]
  CC20 hepatic nuclei: > 10000 nM
[3]; [13]
  maximum inhibition: 102%
